Test [1] deals with E3 ubiquitin-protein ligase CBL (Homo sapiens, UniProt P22681). Kind of test: Cbl-b and c-Cbl SPR Assay.
Test [2] has as its target E3 ubiquitin-protein ligase CBL-B (Homo sapiens, UniProt Q13191). In words: Cbl-b and c-Cbl SPR Assay.

E3 ubiquitin-protein ligase CBL-B, sequence (Q13191 whole entry): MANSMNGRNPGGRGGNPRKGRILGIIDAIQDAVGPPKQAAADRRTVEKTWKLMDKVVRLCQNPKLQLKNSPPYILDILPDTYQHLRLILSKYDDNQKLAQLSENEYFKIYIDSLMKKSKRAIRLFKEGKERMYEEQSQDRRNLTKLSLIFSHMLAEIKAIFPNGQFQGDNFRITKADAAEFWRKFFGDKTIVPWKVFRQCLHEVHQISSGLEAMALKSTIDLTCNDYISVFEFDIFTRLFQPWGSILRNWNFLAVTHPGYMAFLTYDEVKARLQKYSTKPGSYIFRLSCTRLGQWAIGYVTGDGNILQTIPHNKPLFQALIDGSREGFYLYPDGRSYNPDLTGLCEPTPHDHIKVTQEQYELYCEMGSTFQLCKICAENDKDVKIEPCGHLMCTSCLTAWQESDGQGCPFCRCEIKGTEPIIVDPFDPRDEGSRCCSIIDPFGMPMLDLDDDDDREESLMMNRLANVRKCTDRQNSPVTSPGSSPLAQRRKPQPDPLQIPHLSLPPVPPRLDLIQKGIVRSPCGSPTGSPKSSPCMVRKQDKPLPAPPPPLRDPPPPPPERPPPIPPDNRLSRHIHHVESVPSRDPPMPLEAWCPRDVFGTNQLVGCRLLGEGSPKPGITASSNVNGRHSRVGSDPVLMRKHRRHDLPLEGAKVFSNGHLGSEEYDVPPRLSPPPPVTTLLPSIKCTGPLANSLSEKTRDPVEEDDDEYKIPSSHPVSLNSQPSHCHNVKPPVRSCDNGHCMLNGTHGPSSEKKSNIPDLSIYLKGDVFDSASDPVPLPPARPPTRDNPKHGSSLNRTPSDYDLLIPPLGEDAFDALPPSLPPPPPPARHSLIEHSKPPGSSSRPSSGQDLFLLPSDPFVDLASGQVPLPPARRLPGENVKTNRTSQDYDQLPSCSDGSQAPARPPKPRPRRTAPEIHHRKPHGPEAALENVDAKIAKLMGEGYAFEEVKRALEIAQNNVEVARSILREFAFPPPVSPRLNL

Usually IC50 stands for the concentration at which inhibition is half-maximal. With `Cn1cnnc1[C@H](F)C1(c2cccc(N3Cc4c(Cl)cc(CNC5(C)CCC5)cc4C3=O)c2)COC1` [US20250230147, Compound 470], the IC50 in test [1] turned out to be 0.0085 µM; in test [2], 0.012 µM.
`Cn1cnnc1[C@H](F)[C@](C)(F)c1cccc(N2Cc3c(cc(CN4CCC5(CC5)C4)cc3C(F)(F)F)C2=O)c1` [US20250230147, Compound 127]: the IC50 in test [1] came out at 0.17 µM; in test [2], 0.077 µM.
For `Cn1cnnc1[C@@H](F)[C@](C)(F)c1cccc(N2Cc3c(cc(CN4CCC5(CC5)C4)cc3C(F)(F)F)C2=O)c1` [US20250230147, Compound 129], in that order: 0.46 µM and 0.13 µM.
For `Cn1cnnc1[C@H](F)[C@@](C)(F)c1cccc(N2Cc3c(cc(CN4CCC5(CC5)C4)cc3C(F)(F)F)C2=O)c1` [US20250230147, Compound 128], in that order: 1.6 µM and 0.48 µM.
The like results for `Cn1cnnc1[C@@H](F)[C@@](C)(F)c1cccc(N2Cc3c(cc(CN4CCC5(CC5)C4)cc3C(F)(F)F)C2=O)c1` [US20250230147, Compound 130] were, in that order, 13 µM and 4 µM.

(Values after BindingDB's records for patent US20250230147 (Genentech, 2025).)
